This note sets out measurements from patent US4508730A, “1,7-Dihydro-pyrrolo[3,4-e][1,4]diazepin-2(3H)-one derivatives a process for preparing them and their use as anticonvulsant and anti-anxiety agents” (Gruppo Lepetit S.p.A., priority 1982, dated 1985).

A short description of assay [1]: antipentylenetetrazole bioassay in mice. Format: in vivo. As to conditions: Mus musculus, 2 h; for responders at 100 mg/kg: sc, 100 mg/kg compound 30 minutes before fatal dose of pentylenetetrazole (140 mg/kg s.c.), read-out: protection against pentylenetetrazole (animals still alive two hours after administration); for ED50: ip, i.p., pentylenetetrazole 140 mg/kg s.c., read-out: ED50 (dose at which 50% of the treated animals are protected). The method, then:
To evaluate the anticonvulsant activity the compounds of the present invention have been submitted to the antipentylenetetrazole bioassay in mice. The experiments have been carried out by following essentially the methodology described by Berger in J. Pharm. Exptl. Ther. 104, 468, (1952). More particularly, a fatal dose of pentylenetetrazole (140 mg/kg s.c.) was administered to groups of ten mice each, treated, 30 minutes before the administration of the convulsant agent, with a selected dose (100 mg/kg) of the potential anticonvulsant compound. […] Since the animals of the control group died within 30 minutes, the effectiveness of the compounds tested was expressed as the number of animals of the group which were still alive two hours after the administration of pentylenetetrazole, out of the total number of animals of the group (10). In this experiment the compounds of examples 1,2,8, 9, 10, 11, 13, 14, 15, 16, and 17 were fully effective giving a 100% protection against pentylenetetrazole.

The target in the next assay is benzodiazepine receptors. Put plainly: "benzodiazepine receptors" test, displacement of ^3 H-Diazepam from rat brain receptors. Format: binding. The settings on record: ^3 H-Diazepam displacement, read-out: In vitro Ki. The protocol:
The anti-anxiety activity of the compounds of the present invention was shown by submitting the compounds to the "benzodiazepine receptors" test.
These experiments were carried out by following the method described by H. Mohler and T. Okada in Life Sciences, Vol. 20, 2101-2110 (1977).

For the next assay, the target named is GABA receptor. As to the kind of experiment: GABA receptor assay, displacement of ^3 H-GABA. As to conditions: for IC50: ^3 H-GABA displacement; for displacement of ^3 H-GABA from its receptors: at micromolar concentrations. In kind it is binding. The protocol: Furthermore some of the compounds of the present invention have been tested in the GABA receptor assay. In this test which was carried out by following the methodology described by M. Herschel and R. J. Baldessarini in Life Sciences, 24, 1849-1854, (1979), the compounds of examples 3 and 15 resulted to be active in displacing more than 50% of ^3 H-GABA from its receptors at micromolar concentrations. […] (As for the GABA's mediating effect of the anxiolytic action of benzodiazepines, see for instance S. J. Enna--Biochemical Pharmacology--30, No. 9, 907-913, (1981)).

SMILES strings stand for the structures. Counter-ions that a name gives are not always drawn.

For `Cc1c2c(cn1C)NC(=O)C(OC(=O)CCC(=O)O)N=C2c1ccccc1` (centres unmarked) [Example 14, 1,4-butandioic acid 1-[1,3,7-trihydro-6,7-dimethyl-2-oxo-5-phenyl-pyrrol[3,4-e][1,4]diazepinyl]ester], in assay [1], the responders at 100 mg/kg came to 100%.

In the case of `CCOC(=O)CCCNC1N=C(c2ccccc2Cl)c2c(cn(C)c2C)N(C)C1=O` (centres unmarked) [Example 18, 5-(2-chlorophenyl)-3-[[3-(ethoxycarbonyl)propyl]amino]-1,7-dihydro-1,6,7-trimethyl-pyrrolo[3,4-e][1,4]diazepin-2(3H)-one], the inhibition constant (Ki) at benzodiazepine receptors stood at 46.1 nM.

Regarding `COC1N=C(c2ccccc2Cl)c2c(cn(C)c2C)N(C)C1=O.Cl.O` (centres unmarked) [Example 17, 5-(2-chlorophenyl)-1,7-dihydro-3-methoxy-1,6,7-trimethyl-pyrrolo[3,4-e][1,4]diazepin-2(3H)-one hydrochloride hydrate], in assay [1], the median effective dose (ED50) came out at 8 mg/kg and the responders at 100 mg/kg worked out at 100%. The Ki on benzodiazepine receptors came out at 23 nM.

`Cc1c2c(cn1C)N(C)C(=O)C(OC(=O)C(C)C)N=C2c1ccccc1Cl` (centres unmarked) [Example 9, 5-(2-chlorophenyl)-1,7-dihydro-1,6,7-trimethyl-3-[(2-methyl-1-oxopropyl)oxy]-pyrrolo[3,4-e][1,4]diazepin-2(3H)-one]: in assay [1], the ED50 amounted to 5 mg/kg and the responders at 100 mg/kg worked out at 100%. The Ki at benzodiazepine receptors amounted to 4.1 nM.

For the compound `Cc1c2c(cn1C)N(C)C(=O)C(OC(=O)CCC(=O)O)N=C2c1ccccc1Cl` (centres unmarked) [Example 13, 1,4-butandioic acid 1-[5-(2-chlorophenyl)-1,3,7-trihydro-1,6,7-trimethyl-2-oxo-pyrrolo[3,4-e][1,4]diazepinyl]ester], in assay [1], the responders at 100 mg/kg was 100%.

Turning to `Cc1ccccc1C(=O)OC1N=C(c2ccccc2Cl)c2c(cn(C)c2C)N(C)C1=O` (centres unmarked) [Example 3], on benzodiazepine receptors, the inhibition constant (Ki) worked out at 1.7 nM. Besides, on GABA receptor, the IC50 is 35000 nM and the “displacement of ^3 H-GABA from its receptors” value was “more than 50%”.

In the case of `CCCC(=O)OC1N=C(c2ccccc2)c2c(cn(C)c2C)NC1=O` (centres unmarked) [Example 8, 1,7-dihydro-6,7-dimethyl-3-[(1-oxobutyl)oxy]-5-phenyl-pyrrolo[3,4-e][1,4]diazepin-2(3H)-one], the responders at 100 mg/kg in assay [1] stood at 100%.

On to `Cc1c2c(cn1C)N(C)C(=O)C(OC(=O)c1ccc(-c3ccccc3)cc1)N=C2c1ccccc1Cl` (centres unmarked) [Example 11], for which, in assay [1], the responders at 100 mg/kg was 100%.

On to `COc1ccc(C(=O)OC2N=C(c3ccccc3Cl)c3c(cn(C)c3C)N(C)C2=O)cc1` (centres unmarked) [Example 10], for which, in assay [1], the responders at 100 mg/kg was determined as 100%. Further, the Ki at benzodiazepine receptors is 8.1 nM.

Regarding `Cc1c2c(cn1C)N(C)C(=O)C(OC(=O)c1ccccc1)N=C2c1ccccc1Cl` (centres unmarked) [Example 1, 5-(2-chlorophenyl)-1,7-dihydro-1,6,7-trimethyl-3-(phenylcarbonyloxy)-pyrrolo[3,4-e][1,4]diazepin-2(3H)-one], in assay [1], the responders at 100 mg/kg was 100%. Further, the Ki at benzodiazepine receptors worked out at 6.7 nM.

With `Cc1c2c(cn1C)N(C)C(=O)C(OC(=O)C(C)(C)C)N=C2c1ccccc1Cl` (centres unmarked) [Example 2, 5-(2-chlorophenyl)-1,7-dihydro-1,6,7-trimethyl-3-(2,2-dimethylpropanoyloxy)-pyrrolo[3,4-e][1,4]diazepin-2(3H)-one], the responders at 100 mg/kg in assay [1] is 100%. For the same compound, on benzodiazepine receptors, the inhibitory constant (Ki) was found to be 17.2 nM.

Consider `CCOC1N=C(c2ccccc2Cl)c2c(cn(C)c2C)N(C)C1=O` (centres unmarked) [Example 16, 5-(2-chlorophenyl)-3-ethoxy-1,7-dihydro-1,6,7-trimethyl-pyrrolo[3,4-e][1,4]diazepin-2(3H)-one hydrochloride hydrate], for which the responders at 100 mg/kg in assay [1] turned out to be 100%. The inhibition constant (Ki) at benzodiazepine receptors came to 24.6 nM.

Turning to `CCOC(=O)CCCNC(=O)CCC(=O)OC1N=C(c2ccccc2)c2c(cn(C)c2C)NC1=O` (centres unmarked) [Example 15, hydrochloride], the responders at 100 mg/kg in assay [1] was 100%. In addition, the Ki on benzodiazepine receptors amounted to 38.9 nM. On GABA receptor, the concentration for half-maximal inhibition (IC50) amounted to 3000 nM and the “displacement of ^3 H-GABA from its receptors” value is reported as “more than 50%”.

In general, Ki refers to a dissociation constant, usually derived from enzyme kinetics or from competition with a known ligand. Usually ED50 stands for the midpoint of the dose-response relation. One may read the IC50 as the concentration that gives 50% inhibition. Read a low IC50 as higher potency.
